“Also recorded” adds a separate entry of the source.
Assays:
Type in all cases: in vivo
IR-8 rice seedlings [1] = experiment: Dry weight of rice seedlings in the dark with and without carbon dioxide (Example VII)
Experimental: (§1) Rice seed cv. IR-8, or Starbonnet was surface treated with 0.1 percent mercuric chloride and planted in 77 cc plastic cups containing vermiculite and watered with one-fourth Hoagland's nutrient solution containing 3 mM of nitrogen at pH 5.0. After 10 days, seedlings were transplanted to 220 cc specimen cups wrapped in aluminum foil and containing 180 cc of the same Hoagland's nutrient solution. Four seedlings were suspended in the solution with a sponge rubber disc. The plants were grown under a 8 h night at 25° C. and a 16 h day at 30° C. with 21 and 8 μwatts per cm^2 in the blue and red spectra respectively. In the test with varying light intensity the high light intensity was 30 13 and the low intensity was 15 and 8 μwatts per cm^2 for the blue and red spectra respectively. The nutrient solution was renewed every 2 or 3 days. After one week the plants were sorted for size and similar sized plants assigned to the same block for the experiment. Prior to the initiation of a test the plants in each cup were assigned treatment numbers by use of a random number table. […] Sixteen hours prior to a test the foil wrapped cups were tared, and filled with one-half Hoaglands solution containing 6 mM nitrogen. Eighteen μl of chloroform or chloroform containing 1.8 μg triacontanol were placed on 2 cm^2 of Whatman No. 1 filter papers, air dried and placed in the specimen cups. This concentration of 10 μg triacontanol/liter was used for all tests described in the following Examples except where specifically indicated to the contrary. Immediately prior to the test the cups were all brought up to 180 ml. including a set of cups without plants to measure evaporation.
In the tests comparing dry weight accumulation in plants grown either in the absence of CO2 or in normal air were grown as previously described except the test was initiated at the end of the 16 hour light period.
Plants were placed in 20×32 cm glass jars fitted with gas inlet and outlet ports. Three jars containing 2 cups each were used for a total of 24 plants for each treatment. The plants were ventilated with air or freed of CO2 by passing it through ascarite and then humidified. The flow rate was approximately 300 ml/minute. Carbon dioxide-free air was also used to purge the appropriate jars during a two minute period required to place the plants in the jars. The N analyses were done by the automated micro-Kjelldahl procedure of Ferrari (1960).
To determine the response of rice seedlings grown in the dark with and without carbon dioxide, 17 day old "IR-8" rice seedlings were grown in the dark for 6 hours. All the parameters of CO2 vs no CO2 and of triacontanol vs no triacontanol were run. The testing procedures were described above.

IR-8 rice seedlings [2] = experiment: Single versus multiple applications on rice seedlings (Example XI)
Experimental: as §1
(§2) Water uptake was measured by weighing the cups after removal of the plants and subtracting the tare and the water evaporated. For tests continued for more than one day, the solution used was measured every 3 days and new Hoagland's added and the pH maintained at 5.0 with sulfuric acid.
In this Example, the experiment determined the growth of "IR-8" rice seedlings by comparing a single application of triacontanol with multiple applications of triacontanol. Triacontanol was applied at the beginning of each indicated period.

[3] = tested on: Heinz 1350 tomato seedlings; experiment: Tomato seedlings in nutrient culture, two application methods (Table XIII)
From the text: These tests were run to determine the response of "Heinz 1350" tomato seedlings to applications of triacontanol in nutrient culture, in two different application methods.

Mich. 396 Field Corn = experiment: Single and multiple applications on field corn at two fertility levels (Example XIV)
Experimental: Tests were run to study the effect of single and multiple applications of triacontanol on the growth of "Mich. 396 Field Corn" grown at two Fertility Levels in a greenhouse soil. Plants were treated at 14 days after planting and were harvested 37 days after planting. The following results were obtained (Table XIV).

IR-8 rice seedlings [4] = experiment: Growth and water uptake of IR-8 rice seedlings (Example IV); conditions: for Dry Wt. per plant / Leaf Area per plant / Water Uptake per leaf area / Water Uptake per plant: 10 μg/liter
Experimental: as §1, §2
The plants were disected at harvest into shoots and roots. The expanded leaves were cut at the ligule and the newest leaf at the point it entered the sheath. The surface area of expanded leaves were measured using a Lambda Model LI-3000 planimeter. The plants were dried to constant weight in an oven at 100° C. and the roots, expanded leaves, and sheaths were weighed separately.
Four to 6 replicates were used in each experiment in a randomized complete block design. The data were submitted to analysis of variance. Means were compared by use of the L.S.D. except where there was only one degree of freedom for treatment. In these instances the F value from the analysis of variance was used for comparison of means.
To determine the effect of triacontanol on growth and water uptake of IR-8 rice seedlings, the seedlings were prepared as above explained. Alternate seedlings were treated with no triacontanol or with a concentration of 10 μg triacontanol per liter as above set forth. Leaf area, dry weight and water uptake were determined for each plant at 0 time and at 8, 24, 72 and 216 hour intervals.

[5] = 10 μg per liter, nutrient solution

## CCCCCCCCCCCCCCCCCCCCCCCCCCCCCCO [Triacontanol, 1-triacontanol]
IR-8 rice seedlings [1]; dark 6 hours
  CO2 fixation in the dark: stimulated rice seedlings to fix CO2 in the dark; also recorded: stimulates plants, such as rice seedlings, to fix CO2 in the dark
IR-8 rice seedlings [1]; with CO2, dark 6 hours
  Dry Wt, Expanded leaves: 26.7 mg/plant
  Dry Wt, Roots: 25.6 mg/plant
  Dry Wt, Whole Plant: 71.9 mg/plant
IR-8 rice seedlings [1]; without CO2, dark 6 hours
  Dry Wt, Expanded leaves: 22.4 mg/plant
  Dry Wt, Roots: 23.2 mg/plant
  Dry Wt, Whole Plant: 62.0 mg/plant
IR-8 rice seedlings [2]; multiple applications
  Dry wt: 286 mg/seedling
IR-8 rice seedlings [2]; multiple applications, time period 0-2
  Water uptake per day: 14.2 mL
IR-8 rice seedlings [2]; multiple applications, time period 3-5
  Water uptake per day: 22.6 mL
IR-8 rice seedlings [2]; multiple applications, time period 6-7
  Water uptake per day: 33.5 mL
IR-8 rice seedlings [2]; multiple applications, time period 8-9
  Water uptake per day: 40.2 mL
IR-8 rice seedlings [2]; multiple applications, time period 10-12, two cups dry at harvest
  Water uptake per day: 57.0 mL
IR-8 rice seedlings [2]; single application
  Dry wt: 273 mg/seedling
IR-8 rice seedlings [2]; single application, time period 0-2
  Water uptake per day: 13.9 mL
IR-8 rice seedlings [2]; single application, time period 3-5
  Water uptake per day: 21.0 mL
IR-8 rice seedlings [2]; single application, time period 6-7
  Water uptake per day: 30.0 mL
IR-8 rice seedlings [2]; single application, time period 8-9
  Water uptake per day: 35.8 mL
IR-8 rice seedlings [2]; single application, time period 10-12, two cups dry at harvest
  Water uptake per day: 56.6 mL
[3]; filter paper, 0.01
  Dry wt: 382 mg/seedling
[3]; filter paper, 0.10
  Dry wt: 430 mg/seedling
[3]; foliar, 0.01
  Dry wt: 405 mg/seedling
[3]; foliar, 0.10
  Dry wt: 407 mg/seedling
Mich. 396 Field Corn; high fertility, 1 application
  Dry Weight: 2.032 g/plant
Mich. 396 Field Corn; high fertility, 5 applications
  Dry Weight: 1.913 g/plant
Mich. 396 Field Corn; low fertility, 1 application
  Dry Weight: 1.297 g/plant
Mich. 396 Field Corn; low fertility, 5 applications
  Dry Weight: 1.696 g/plant
IR-8 rice seedlings [4]; [5]
  time within which dry weight of entire plant significantly increased: ≤ 3 days
  time within which leaf area significantly increased: ≤ 8 h
IR-8 rice seedlings [4]; 8 hours
  Dry Wt. per plant: 53.4 mg
  Leaf Area per plant: 8.2 cm^2
  Water Uptake per leaf area: 0.25 ml/cm^2 leaf area
  Water Uptake per plant: 2.0 mL
IR-8 rice seedlings [4]; 24 hours
  Dry Wt. per plant: 58.6 mg
  Leaf Area per plant: 9.0 cm^2
  Water Uptake per leaf area: 0.35 ml/cm^2 leaf area
  Water Uptake per plant: 3.2 mL
IR-8 rice seedlings [4]; 72 hours
  Dry Wt. per plant: 81.7 mg
  Leaf Area per plant: 13.7 cm^2
  Water Uptake per leaf area: 1.34 ml/cm^2 leaf area
  Water Uptake per plant: 18.4 mL
IR-8 rice seedlings [4]; 216 hours
  Dry Wt. per plant: 204.0 mg
  Leaf Area per plant: 22.4 cm^2
  Water Uptake per leaf area: 2.92 ml/cm^2 leaf area
  Water Uptake per plant: 65.5 mL

Reference: patent US4150970A, “Growth regulator for plants” (Board of Trustees of Michigan State University, priority 1977, dated 1979)
